“Also recorded” adds a separate entry of the source.
Key:
[1] = tested on: L 1210 cells; assay: cytotoxic effect of IABP and INO2 BA, alone and combined, on L 1210 cell growth; format: cell-based, murine; settings: Mus musculus, L1210, 72 h, three days, read-out: decrease of L 1210 cell proliferation
Method: 64 μM INO2 BA decreased L 1210 cell proliferation by approximately 80% over a three day growth period.

[2] = tested on: SIVmac239 in CEM ×174 cells; assay: effect of IABP on SIVmac239 replication, p27 core antigen assay; format: cell-based, SIV
Method: CEM ×174 cells (3×10^5 /ml) were infected with SIVmac239 on day 0 and incubated for 3 days (37° C., 5% CO2) before treatment with IABP (0-0.5 mM). The cultures were incubated for an additional 4 days before being replenished with fresh CEM ×174 cells (3×10^5/ml) and IABP. On day 10 the levels of free virus in the supernatants of the cultures were assessed using the SIV p27 core antigen assay (Coulter Corp). The absorbance was measured at 450 nm.
The effect of IABP on the infection cycle of SIV was determined. CEM ×174 cells (3×10^5 /ml) were infected with SIVmac239 on day 0 and incubated for 3 days ([…], 5% CO2) before treatment with IABP (0-0.5 mM). The cultures were incubated for an additional 4 days before being replenished with fresh CEM ×174 cells (3×10^5/ml) and IABP. On day 10 the levels of free virus in the supernatants of the cultures were assessed using the SIV p27 core antigen assay (Coulter Copr.) The absorbance was measured at 450 nm.

[3] = tested on: SIVmac239 or virus isolates in CEM ×174 cells; settings: Chuang et al., submitted (1994); cited from earlier work
[4] = tested on: cells; settings: Cole et al.; cited from earlier work
[5] = tested on: HIV; settings: Cole et al.; cited from earlier work
[6] = tested on: CCHC zinc fingers of pADPRT or p7 NC protein of retroviruses; settings: cited from earlier work

Nc1ccc2oc(=O)ccc2c1I [IABP, 5-iodo-6-amino-1,2-benzopyrone]
inhibition at 160 µM ([1]; IABP 160 μM): ~55% | inhibition at 320 µM ([1]; IABP 320 μM): ~80% | inhibition at 480 µM ([1]; IABP 480 μM): ~93% | p27 levels ([2]; 0-0.5 mM, day 10): depresses p27 levels proportional to its concentration | titre of virions in the supernatant ([2]; 0.3 and 0.5 mM IABP): reduced the titre of virions | sensitivity to addition of BSO [3]: insensitive | toxicity of IABP [4]: very low; also recorded: no toxic effect on cells; also recorded: non-toxicity | infectious cycle of HIV [5]: blocked the infectious cycle of HIV | influence on CCHC zinc fingers [6]: no influence

Source: patent publication US5877185A, “Synergistic compositions useful as anti-tumor agents” (priority 1995, dated 1999)
